Source: paper PMC5605781 (Journal of medicinal chemistry, 2017)

What was measured:
HIV-1 = settings: antiviral activity; cited from earlier work
[1] = test system: seven HIV-1 variants selected in vitro with SQV, APV, LPV, IDV, NFV, ATV, TPV; assay: microbe, parasite or virus in culture; format: cell-based; settings: Human immunodeficiency virus 1, read-out: IC50 values, range over variants
HIV-1NL4-3 = assay: Antiviral p24 assay in MT-4 cells, wild-type HIV-1NL4-3; format: cell-based; settings: wild-type HIV-1NL4-3, compared to DRV

Row | Structure (SMILES) | EC50 (HIV-1) [nM] | IC50 [1] [nM] | factor of more potent block of replication compared to DRV (HIV-1NL4-3)
1 | COc1ccc(S(=O)(=O)N(CC(C)C)C[C@@H](O)[C@H](Cc2ccccc2)NC(=O)O[C@H]2CO[C@H]3OCC[C@H]32)cc1 [Inhibitor 3] | 0.5 | – | –
2 | CC(C)CN(C[C@@H](O)[C@H](Cc1ccccc1)NC(=O)O[C@H]1C2CO[C@H]3OCC1C3C2)S(=O)(=O)c1ccc2nc(NC3CC3)sc2c1 (stereo partly drawn) [Inhibitor 5, (3S,7aS,8S)-Hexahydro-4H-3,5-methanofuro[2,3-b]pyran-8-yl ((2S,3R)-4-((2-(cyclopropylamino)-N-isobutylbenzo[d]thiazole)-6-sulfonamido)-3-hydroxy-1-phenylbutan-2-yl)carbamate] | – | 0.0026 to 0.27 | 10
